Results as given in patent US7901700B2, “Bifenthrin/acetamiprid compositions for control of general household pests” (FMC Corporation, priority 2004, dated 2011).

How the values were obtained:
German cockroach = German cockroach knockdown and mortality, spray chamber application; format: in vivo
Procedure: The compositions of the present invention were tested for German cockroach activity in the following manner:
(§1) Test compositions made up of TALSTARONE® MULTI-INSECTICIDE and a 70% wettable powder of acetamiprid in distilled water were prepared that provided appropriate rates of application of combinations of bifenthrin and acetamiprid, as well as bifenthrin and acetamiprid alone.
The spray chamber was then calibrated to deliver the treatment solution at the desired volume and pressure over the desired area on the chamber shelf. Spray chamber shelf height was adjusted to approximately 18 inches from the spray tip. The shelf was then covered with aluminum foil and the center of the shelf from front-to-back and end-to-end was determined. A desired number of 4.0″ sieve circles were marked on the aluminum foil with a permanent marker. The inside of a desired number of PVC rings were coated with a petroleum jelly/mineral oil mixture (1:2 ratio). The PVC rings were place on the sieve circles. 10 male German cockroaches were placed inside each PVC ring. The sprayer was activated and the test compound was applied to each PVC ring interior. German cockroach knockdown and mortality were measured.

House Flies = test: House fly knockdown and mortality, hand held sprayer application; format: in vivo
Procedure: The compositions of the present invention were tested for house fly activity in the following manner:
as §1
A DeVilbiss hand held sprayer was used to deliver the treatment solution at the desired volume and pressure. The house flies to be treated were collected and placed in screened 16 oz paper cups. The hand held sprayer was activated and the test compound was applied to each paper cup interior. House fly knockdown and mortality were measured.

Bed Bugs = test: Bed bug mortality, spray chamber application; format: in vivo
Procedure: The compositions of the present invention were tested for bed bug activity in the following manner:
as §1
(§2) The spray chamber was then calibrated to deliver the treatment solution at the desired volume and pressure over the desired area on the chamber shelf. Spray chamber shelf height was adjusted to approximately 10.5 inches from the spray tip. The shelf was then covered with aluminum foil and the center of the shelf from front-to-back and end-to-end was determined. The bed bugs to be treated were collected and placed in screened 16 oz paper cups. The paper cups were placed onto the aluminum foil on the spray chamber shelf. The sprayer was activated and the test compound was applied to each paper cup interior. Bed bug mortality was measured.

Red Imported Fire Ant = test: Red imported fire ant knockdown and mortality, spray chamber application; format: in vivo, Solenopsis invicta
Procedure: The compositions of the present invention were tested for red imported fire ant activity in the following manner:
as §1
as §2, with “approximately 18” for “approximately 10.5”, “The red imported fire ants” for “The bed bugs”, “interior. Red imported fire ant knockdown and” for “interior. Bed bug”, “mortality were” for “mortality was”

[1] = Rate of Appln. 10 PPM (0.001% by weight)
[2] = Rate of Appln. 50 PPM (0.005% by weight)
[3] = Rate of Appln. 200 PPM (0.02% by weight)
[4] = Rate of Appln. 600 PPM (0.06% by weight)
[5] = Rate of Appln. 300 PPM (0.03% by weight)
[6] = Rate of Appln. 100 PPM (0.01% by weight)
[7] = Rate of Appln. 250 PPM (0.025% by weight)
[8] = Rate of Appln. 500 PPM (0.05% by weight)
[9] = Rate of Appln. 1000 PPM (0.10% by weight)
[10] = Rate of Appln. 125 PPM (0.0125% by weight)

With Cc1c(COC(=O)[C@@H]2[C@H](/C=C(\Cl)C(F)(F)F)C2(C)C)cccc1-c1ccccc1 (racemic) [A, 2-methylbiphenyl-3-ylmethyl(Z)-(1RS)-cis-3-(2-chloro-3,3,3-trifluoroprop-1-enyl)-2,2-dimethylcyclopropanecarboxylate] the “Knockdown Rate @ 10 minutes” value (German cockroach; [1]) was 0%, the “Knockdown Rate @ 15 minutes” value (German cockroach; [1]) was 3% and the “Knockdown Rate @ 30 minutes” value (German cockroach; [1]) was 23%. For the same compound, the “Mortality Rate @ 60 minutes” value (German cockroach; [1]) was 40%, the “Mortality Rate @ 240 minutes” value (German cockroach; [1]) was 50% and the “Knockdown Rate @ 10 minutes” value (German cockroach; [2]) was 0%. The “Knockdown Rate @ 15 minutes” value (German cockroach; [2]) was 0%, the “Knockdown Rate @ 30 minutes” value (German cockroach; [2]) was 0% and the “Mortality Rate @ 60 minutes” value (German cockroach; [2]) was 38%. The “Mortality Rate @ 240 minutes” value (German cockroach; [2]) was 60%, the “Knockdown Rate @ 10 minutes” value (German cockroach; [3]) was 0% and the “Knockdown Rate @ 15 minutes” value (German cockroach; [3]) was 3%. The “Knockdown Rate @ 30 minutes” value (German cockroach; [3]) was 45%, the “Mortality Rate @ 60 minutes” value (German cockroach; [3]) was 100% and the “Mortality Rate @ 120 minutes” value (German cockroach; [3]) was 100%. The “Mortality Rate @ 240 minutes” value (German cockroach; [3]) was 100%, the “Knockdown Rate @ 10 minutes” value (German cockroach; [4]) was 0% and the “Knockdown Rate @ 15 minutes” value (German cockroach; [4]) was 8%. For the same compound, the “Knockdown Rate @ 30 minutes” value (German cockroach; [4]) was 60%, the “Mortality Rate @ 60 minutes” value (German cockroach; [4]) was 100% and the “Mortality Rate @ 120 minutes” value (German cockroach; [4]) was 100%. For the same compound, the “Mortality Rate @ 240 minutes” value (German cockroach; [4]) was 100%, the “Knockdown Rate @ 15 minutes” value (House Flies; [1]) was 0% and the “Knockdown Rate @ 30 minutes” value (House Flies; [1]) was 0%. For the same compound, the “Knockdown Rate @ 60 minutes” value (House Flies; [1]) was 19%, the “Knockdown Rate @ 120 minutes” value (House Flies; [1]) was 19% and the “Knockdown Rate @ 240 minutes” value (House Flies; [1]) was 48%. The “Mortality Rate @ 1 day” value (House Flies; [1]) was 3%, the “Knockdown Rate @ 15 minutes” value (House Flies; [2]) was 0% and the “Knockdown Rate @ 30 minutes” value (House Flies; [2]) was 19%. The “Knockdown Rate @ 60 minutes” value (House Flies; [2]) was 59%, the “Knockdown Rate @ 120 minutes” value (House Flies; [2]) was 63% and the “Knockdown Rate @ 240 minutes” value (House Flies; [2]) was 100%. The “Mortality Rate @ 1 day” value (House Flies; [2]) was 63%, the “Mortality Rate @ 2 hours” value (Bed Bugs; [3]) was 85% and the “Mortality Rate @ 1 day” value (Bed Bugs; [3]) was 100%. For the same compound, the “Mortality Rate @ 2 hours” value (Bed Bugs; [4]) was 75%, the “Mortality Rate @ 1 day” value (Bed Bugs; [4]) was 100% and the “Knockdown Rate @ 10 minutes” value (Red Imported Fire Ant; [5]) was 63%. The “Knockdown Rate @ 15 minutes” value (Red Imported Fire Ant; [5]) was 100%, the “Knockdown Rate @ 30 minutes” value (Red Imported Fire Ant; [5]) was 100% and the “Mortality Rate @ 60 minutes” value (Red Imported Fire Ant; [5]) was 100%. The “Mortality Rate @ 120 minutes” value (Red Imported Fire Ant; [5]) was 100%, the “Mortality Rate @ 240 minutes” value (Red Imported Fire Ant; [5]) was 100% and the “Knockdown Rate @ 10 minutes” value (Red Imported Fire Ant; [4]) was 78%. The “Knockdown Rate @ 15 minutes” value (Red Imported Fire Ant; [4]) was 100%, the “Knockdown Rate @ 30 minutes” value (Red Imported Fire Ant; [4]) was 100% and the “Mortality Rate @ 60 minutes” value (Red Imported Fire Ant; [4]) was 100%. For the same compound, the “Mortality Rate @ 120 minutes” value (Red Imported Fire Ant; [4]) was 100% and the “Mortality Rate @ 240 minutes” value (Red Imported Fire Ant; [4]) was 100%.

C/C(=N\C#N)N(C)Cc1ccc(Cl)nc1 [B, (E)-N^1-[(6-chloro-3-pyridyl)methyl]-N^2-cyano-N^1-methylacetamidine] was tested, and the “Knockdown Rate @ 10 minutes” value (German cockroach; [2]) was 0%, the “Knockdown Rate @ 15 minutes” value (German cockroach; [2]) was 13% and the “Knockdown Rate @ 30 minutes” value (German cockroach; [2]) was 38%. The “Mortality Rate @ 60 minutes” value (German cockroach; [2]) was 53%, the “Mortality Rate @ 240 minutes” value (German cockroach; [2]) was 63% and the “Knockdown Rate @ 10 minutes” value (German cockroach; [6]) was 0%. The “Knockdown Rate @ 15 minutes” value (German cockroach; [6]) was 8%, the “Knockdown Rate @ 30 minutes” value (German cockroach; [6]) was 38% and the “Mortality Rate @ 60 minutes” value (German cockroach; [6]) was 58%. For the same compound, the “Mortality Rate @ 240 minutes” value (German cockroach; [6]) was 63%, the “Knockdown Rate @ 10 minutes” value (German cockroach; [7]) was 10% and the “Knockdown Rate @ 15 minutes” value (German cockroach; [7]) was 35%. For the same compound, the “Knockdown Rate @ 30 minutes” value (German cockroach; [7]) was 75%, the “Mortality Rate @ 60 minutes” value (German cockroach; [7]) was 88% and the “Mortality Rate @ 120 minutes” value (German cockroach; [7]) was 90%. For the same compound, the “Mortality Rate @ 240 minutes” value (German cockroach; [7]) was 83%, the “Knockdown Rate @ 10 minutes” value (German cockroach; [8]) was 8% and the “Knockdown Rate @ 15 minutes” value (German cockroach; [8]) was 45%. The “Knockdown Rate @ 30 minutes” value (German cockroach; [8]) was 88%, the “Mortality Rate @ 60 minutes” value (German cockroach; [8]) was 80% and the “Mortality Rate @ 120 minutes” value (German cockroach; [8]) was 98%. The “Mortality Rate @ 240 minutes” value (German cockroach; [8]) was 80%, the “Knockdown Rate @ 10 minutes” value (German cockroach; [9]) was 38% and the “Knockdown Rate @ 15 minutes” value (German cockroach; [9]) was 75%. For the same compound, the “Knockdown Rate @ 30 minutes” value (German cockroach; [9]) was 93%, the “Mortality Rate @ 60 minutes” value (German cockroach; [9]) was 100% and the “Mortality Rate @ 120 minutes” value (German cockroach; [9]) was 98%. For the same compound, the “Mortality Rate @ 240 minutes” value (German cockroach; [9]) was 80%, the “Knockdown Rate @ 15 minutes” value (House Flies; [6]) was 47% and the “Knockdown Rate @ 30 minutes” value (House Flies; [6]) was 47%. For the same compound, the “Knockdown Rate @ 60 minutes” value (House Flies; [6]) was 53%, the “Knockdown Rate @ 120 minutes” value (House Flies; [6]) was 41% and the “Knockdown Rate @ 240 minutes” value (House Flies; [6]) was 53%. For the same compound, the “Mortality Rate @ 1 day” value (House Flies; [6]) was 16%, the “Knockdown Rate @ 15 minutes” value (House Flies; [3]) was 69% and the “Knockdown Rate @ 30 minutes” value (House Flies; [3]) was 86%. For the same compound, the “Knockdown Rate @ 60 minutes” value (House Flies; [3]) was 72%, the “Knockdown Rate @ 120 minutes” value (House Flies; [3]) was 72% and the “Knockdown Rate @ 240 minutes” value (House Flies; [3]) was 78%. The “Mortality Rate @ 1 day” value (House Flies; [3]) was 28%, the “Mortality Rate @ 2 hours” value (Bed Bugs; [7]) was 30% and the “Mortality Rate @ 1 day” value (Bed Bugs; [7]) was 95%. The “Mortality Rate @ 2 hours” value (Bed Bugs; [8]) was 60%, the “Mortality Rate @ 1 day” value (Bed Bugs; [8]) was 100% and the “Mortality Rate @ 2 hours” value (Bed Bugs; [9]) was 95%. The “Mortality Rate @ 1 day” value (Bed Bugs; [9]) was 100%, the “Knockdown Rate @ 10 minutes” value (Red Imported Fire Ant; [10]) was 0% and the “Knockdown Rate @ 15 minutes” value (Red Imported Fire Ant; [10]) was 0%. The “Knockdown Rate @ 30 minutes” value (Red Imported Fire Ant; [10]) was 10%, the “Mortality Rate @ 60 minutes” value (Red Imported Fire Ant; [10]) was 5% and the “Mortality Rate @ 120 minutes” value (Red Imported Fire Ant; [10]) was 65%. The “Mortality Rate @ 240 minutes” value (Red Imported Fire Ant; [10]) was 90%, the “Knockdown Rate @ 10 minutes” value (Red Imported Fire Ant; [7]) was 10% and the “Knockdown Rate @ 15 minutes” value (Red Imported Fire Ant; [7]) was 3%. For the same compound, the “Knockdown Rate @ 30 minutes” value (Red Imported Fire Ant; [7]) was 5%, the “Mortality Rate @ 60 minutes” value (Red Imported Fire Ant; [7]) was 13% and the “Mortality Rate @ 120 minutes” value (Red Imported Fire Ant; [7]) was 98%. For the same compound, the “Mortality Rate @ 240 minutes” value (Red Imported Fire Ant; [7]) was 100%, the “Knockdown Rate @ 10 minutes” value (Red Imported Fire Ant; [8]) was 0% and the “Knockdown Rate @ 15 minutes” value (Red Imported Fire Ant; [8]) was 15%. The “Knockdown Rate @ 30 minutes” value (Red Imported Fire Ant; [8]) was 15%, the “Mortality Rate @ 60 minutes” value (Red Imported Fire Ant; [8]) was 60% and the “Mortality Rate @ 120 minutes” value (Red Imported Fire Ant; [8]) was 100%. For the same compound, the “Mortality Rate @ 240 minutes” value (Red Imported Fire Ant; [8]) was 100%.
